The subject of the assay is bovine ovarian cortex tissue. Briefly: Endothelial cell density (Factor VIII immunolocalization) in cultured ovarian cortex tissue. Format: cell-based. The following applies: treatment mean over 0 h, 4 h, 24 h, 48 h; L-Mesitran 0.2%, VEGF 50 ng.mL-1; in vitro culture TCM-199 with 10% cow serum. The source says: Four mature crossbred beef cows (12 months of age) were used for this study. […] The 0.2% v/v concentration (L-Mesitran) was chosen according to the highest reported pro-angiogenic effect for this medical grade honey in an in vitro tissue culture. The ovarian cortex endothelial immunolocalization was quantified using Factor VIII [9] R Ag. Rabbit Polyclonal Antibody (ref 760-2642; BenchMark ULTRA IHC/ISH Module staining protocol; Ventana Medical Systems, Inc.; Roche, USA) at concentrations of 2.26 µg/ml, and Fiji software for the digital analysis, after 0 h, 4 h, 24 h and 48 h in each of the mentioned 4 groups. Cellular cytotoxicity (quantitation of lactate dehydrogenase, LDH [11], in cell culture supernatant) was also evaluated in the same mentioned time periods (CytoTox 96® Non-Radioactive Cytotoxicity Assay G1782, Promega GloMax Multi Detection System).
Data from ovarian cortex tissue endothelial density (immunohistochemistry data) and LDH quantification in cell culture supernatant, were analysed using the proc glimmix of SAS (Statistical Analysis Systems, SAS Inst., Inc., Cary, N.C., USA). The models included treatments and hours as fixed effects, and animal (cow) as random (co-variable) effect. The means of each treatment/hours were calculated and compared by the PDIFF multiple comparison test. The differences were considered significant for P≤0.05.

From US11160272B2, “Methods for preserving tissue with medical grade honey” (TRITICUM EXPLOITATIE B.V., priority 2017, dated 2021) come the findings set out here.

As for VEGF, the “Endothelial cell density (Factor VIII immunolocalization), treatment effect” value was found to be 0.2942±0.1486.
